Tests used:
[1] = cited from earlier work
[2] = test system: prostate tumor-bearing TRAMP mice; conditions: 30 min dynamic PET, n = 3/group

Time-dependent blood distribution by dynamic PET: JV versus RO injection [2]: consistent circulation
Structure (SMILES): OC[C@H]1OC(O)[C@H](F)[C@@H](O)[C@@H]1O (stereo partly drawn) [^18F-FDG, ^18F-fluorodeoxyglucose]
Time to peak in circulation and distribute to half its concentration ([1]; after cardiac administration): ≤ 5 s
Time to reach a plateau in tissues [1]: ≤ 30 min

Source: publication PMC11364845 (Scientific Reports, 2024)
